31 compounds from patent US20240415918A1, “Polypeptide and its use as a CCK receptor agonist/antagonist” (Centre for Regenerative Medicine & Health, Hong Kong …, priority 2021, published 2024) can be followed below.

For this test, the target named is T1, CCK-B receptors (CHO-CCK) (Homo sapiens, UniProt P32239).
T1 construct: expressed in transfected cells; host or cells: CHO (CHO-CCK model cells)
T1 sequence (P32239 1-447): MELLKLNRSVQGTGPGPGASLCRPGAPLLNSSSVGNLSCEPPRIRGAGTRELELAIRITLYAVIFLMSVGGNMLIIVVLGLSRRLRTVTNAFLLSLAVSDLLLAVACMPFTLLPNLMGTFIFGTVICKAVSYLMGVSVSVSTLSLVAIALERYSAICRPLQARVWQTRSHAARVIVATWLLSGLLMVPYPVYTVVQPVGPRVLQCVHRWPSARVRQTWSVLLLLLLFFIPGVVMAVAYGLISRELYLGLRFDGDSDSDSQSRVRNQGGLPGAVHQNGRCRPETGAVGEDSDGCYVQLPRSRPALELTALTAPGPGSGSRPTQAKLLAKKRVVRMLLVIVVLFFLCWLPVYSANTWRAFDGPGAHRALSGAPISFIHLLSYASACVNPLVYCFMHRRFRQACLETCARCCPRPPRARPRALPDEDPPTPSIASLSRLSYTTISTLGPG
The experiment in a line: Calcium flux (Fluo-8) agonist test on CHO-CCK model cells. It counts as cell-based. To be noted: for Agonistic Activity (%) at 10 μM: compound at 10 μM, percentage of signal of 20 nM CCK8 alone. As for the experimental part: • To detect changes in intracellular calcium ion concentration after the compound acts on model cells containing CCK-B receptors (CHO-CCK).
• 1. The compound was formulated to a 10 mM mother liquor with DMSO, and then diluted into a series of 9 concentrations with a 3-fold gradient to form a 1000× stock solution.
2.1 Agonist • The compound stock solution was subjected to 200-fold dilution with HHBS buffer to form a 5× working solution.
• 1. Plate CHO-CCK cells in a 96-well plate with media containing 1% FBS, 30,000 cells/well/100 μL, and incubate overnight at 37° C. • 2. Prepare 1×Fluo-8 analysis buffer: mix 9 mL of HHBS, 1 mL of 10× Pluronic F127 Plus and 20 μL of Fluo-8 thoroughly for later use. • 3. Add Fluo-8 dye working solution to the cell plate, 100 μL/well. First incubate in a 37° C. incubator for 30 min, and then take it out and incubate at room temperature in the dark for 30 min. • 4. In the process of incubating cells, the compounds to be detected were prepared with HHBS. • 5.
The agonism/antagonism EC50 of the compound can be obtained by plotting the fitting curve with the agonism/antagonism percentage as Y-axis and the concentration of the compound as X-axis.
(In general: Calcium flux is commonly read through the fluorescence of an indicator in the cells.)

For `CS(=O)(=O)CC[C@H](NC(=O)[C@H](N)Cc1c[nH]c2ccccc12)C(=O)N[C@@H](CC(=O)O)C(=O)N[C@@H](Cc1ccc(C#N)cc1)C(N)=O` [HT-66, D-Trp-Met(O2)-Asp-Phe(4-CN)-NH2], the “Agonistic Activity (%) at 10 μM” value is reported as 0.33%.

With `CS(=O)(=O)CC[C@H](NC(=O)[C@H](N)Cc1c[nH]c2ccccc12)C(=O)N[C@@H](CC(=O)O)C(=O)N[C@@H](Cc1ccc([N+](=O)[O-])cc1)C(N)=O` [HT-67, D-Trp-Met(O2)-Asp-Phe(4-NO2)-NH2], the “Agonistic Activity (%) at 10 μM” value was −1.49%.

For the compound `CS(=O)(=O)CC[C@H](NC(=O)[C@H](N)Cc1c[nH]c2ccccc12)C(=O)N[C@@H](CC(=O)O)C(=O)N[C@@H](Cc1ccc(Br)cc1)C(N)=O` [HT-68, D-Trp-Met(O2)-Asp-Phe(4-Br)-NH2], the “Agonistic Activity (%) at 10 μM” value is on record as 15.61%.

Regarding `CS(=O)(=O)CC[C@H](NC(=O)[C@H](N)Cc1c[nH]c2ccccc12)C(=O)N[C@@H](CC(=O)O)C(=O)N[C@@H](Cc1ccc(Cl)cc1)C(N)=O` [HT-69, D-Trp-Met(O2)-Asp-Phe(4-Cl)-NH2], the “Agonistic Activity (%) at 10 μM” value worked out at 20.02%.

The EC50 is the concentration that produces a half-maximal response. `CS(=O)(=O)CC[C@H](NC(=O)[C@H](N)Cc1c[nH]c2ccccc12)C(=O)N[C@@H](CC(=O)O)C(=O)N[C@@H](Cc1ccc(F)cc1)C(N)=O` [HT-70, D-Trp-Met(O2)-Asp-Phe(4-F)-NH2]: the “Agonistic Activity (%) at 10 μM” value is recorded as 35.31%. The EC50 (CHO-CCK cells, compound alone, 100% = 20 nM CCK8) amounted to 11.4 µM.

`CS(=O)(=O)CC[C@H](NC(=O)[C@H](N)Cc1c[nH]c2ccccc12)C(=O)N[C@@H](CC(=O)O)C(=O)N[C@@H](Cc1ccc(I)cc1)C(N)=O` [HT-71, D-Trp-Met(O2)-Asp-Phe(4-I)-NH2]: the “Agonistic Activity (%) at 10 μM” value came to 13.13%.

Consider `COC(=O)C[C@H](NC(=O)[C@H](CCSC)NC(=O)[C@H](N)Cc1c[nH]c2ccccc12)C(=O)N[C@@H](Cc1ccccc1[N+](=O)[O-])C(N)=O` [HT-75, D-Trp-Met-Asp(Ome)-Phe(2-NO2)-NH2], for which the “Agonistic Activity (%) at 10 μM” value is listed as −0.20%.

As to `COC(=O)C[C@H](NC(=O)[C@H](CCSC)NC(=O)[C@H](N)Cc1c[nH]c2ccccc12)C(=O)N[C@@H](Cc1ccccc1F)C(N)=O` [HT-76, D-Trp-Met-Asp(Ome)-Phe(2-F)-NH2], the “Agonistic Activity (%) at 10 μM” value is 23.09%.

For the compound `COC(=O)C[C@H](NC(=O)[C@H](CCSC)NC(=O)[C@H](N)Cc1c[nH]c2ccccc12)C(=O)N[C@@H](Cc1cccc(Cl)c1)C(N)=O` [HT-77, D-Trp-Met-Asp(Ome)-Phe(3-Cl)-NH2], the “Agonistic Activity (%) at 10 μM” value came out at 1.83%.

Regarding `COC(=O)C[C@H](NC(=O)[C@H](CCSC)NC(=O)[C@H](N)Cc1c[nH]c2ccccc12)C(=O)N[C@@H](Cc1ccc(C)cc1)C(N)=O` [HT-81, D-Trp-Met-Asp(Ome)-Phe(4-Me)-NH2], the “Agonistic Activity (%) at 10 μM” value came out at 12.27%.

Take `COC(=O)C[C@H](NC(=O)[C@H](CCSC)NC(=O)[C@H](N)Cc1c[nH]c2ccccc12)C(=O)N[C@@H](Cc1ccc(N=[N+]=[N-])cc1)C(N)=O` [HT-82, D-Trp-Met-Asp(Ome)-Phe(4-N3)-NH2]: the “Agonistic Activity (%) at 10 μM” value is listed as 12.78%.

As for `COC(=O)C[C@H](NC(=O)[C@H](CCSC)NC(=O)[C@H](N)Cc1c[nH]c2ccccc12)C(=O)N[C@@H](Cc1ccc(C#N)cc1)C(N)=O` [HT-83, D-Trp-Met-Asp(Ome)-Phe(4-CN)-NH2], the “Agonistic Activity (%) at 10 μM” value was found to be 1.91%.

As for `COC(=O)C[C@H](NC(=O)[C@H](CCSC)NC(=O)[C@H](N)Cc1c[nH]c2ccccc12)C(=O)N[C@@H](Cc1ccc([N+](=O)[O-])cc1)C(N)=O` [HT-84, D-Trp-Met-Asp(Ome)-Phe(4-NO2)-NH2], the “Agonistic Activity (%) at 10 μM” value worked out at 3.24%.

As to `COC(=O)C[C@H](NC(=O)[C@H](CCSC)NC(=O)[C@H](N)Cc1c[nH]c2ccccc12)C(=O)N[C@@H](Cc1ccc(Br)cc1)C(N)=O` [HT-85, D-Trp-Met-Asp(Ome)-Phe(4-Br)-NH2], the “Agonistic Activity (%) at 10 μM” value is 7.32%.

With `COC(=O)C[C@H](NC(=O)[C@H](CCSC)NC(=O)[C@H](N)Cc1c[nH]c2ccccc12)C(=O)N[C@@H](Cc1ccc(Cl)cc1)C(N)=O` [HT-86, D-Trp-Met-Asp(Ome)-Phe(4-Cl)-NH2], the “Agonistic Activity (%) at 10 μM” value is on record as −0.94%.

As to `COC(=O)C[C@H](NC(=O)[C@H](CCSC)NC(=O)[C@H](N)Cc1c[nH]c2ccccc12)C(=O)N[C@@H](Cc1ccc(I)cc1)C(N)=O` [HT-88, D-Trp-Met-Asp(Ome)-Phe(4-I)-NH2], the “Agonistic Activity (%) at 10 μM” value is −4.64%.

Turning to `COC(=O)C[C@H](NC(=O)[C@H](CCSC)NC(=O)[C@H](N)Cc1c[nH]c2ccccc12)C(=O)N[C@@H](Cc1cc(F)c(F)c(F)c1)C(N)=O` [HT-91, D-Trp-Met-Asp(Ome)-Phe(3,4,5-TriF)-NH2], the “Agonistic Activity (%) at 10 μM” value is 3.12%.

Take `CSCC[C@H](NC(=O)[C@H](N)Cc1c[nH]c2ccccc12)C(=O)N[C@@H](CC(=O)OCCNc1cccc2c(O)cccc12)C(=O)N[C@@H](Cc1ccc(Cl)cc1)C(N)=O` [HT-103, D-Trp-Met-Asp(EDANS)-Phe(4-Cl)-NH2]: the “Agonistic Activity (%) at 10 μM” value was determined as 1.03%.

For the compound `COC(=O)C[C@H](NC(=O)[C@H](CC[S+](C)[O-])NC(=O)[C@H](N)Cc1c[nH]c2ccccc12)C(=O)N[C@@H](Cc1ccccc1[N+](=O)[O-])C(N)=O` (stereo partly drawn) [HT-109, D-Trp-Met(O)-Asp(Ome)-Phe(2-NO2)-NH2], the “Agonistic Activity (%) at 10 μM” value is listed as 3.33%.

With `COC(=O)C[C@H](NC(=O)[C@H](CC[S+](C)[O-])NC(=O)[C@H](N)Cc1c[nH]c2ccccc12)C(=O)N[C@@H](Cc1ccccc1F)C(N)=O` (stereo partly drawn) [HT-110, D-Trp-Met(O)-Asp(Ome)-Phe(2-F)-NH2], the “Agonistic Activity (%) at 10 μM” value came to 1.36%.

Take `COC(=O)C[C@H](NC(=O)[C@H](CC[S+](C)[O-])NC(=O)[C@H](N)Cc1c[nH]c2ccccc12)C(=O)N[C@@H](Cc1cccc(Cl)c1)C(N)=O` (stereo partly drawn) [HT-111, D-Trp-Met(O)-Asp(Ome)-Phe(3-Cl)-NH2]: the “Agonistic Activity (%) at 10 μM” value is −7.28%.

As to `COC(=O)C[C@H](NC(=O)[C@H](CC[S+](C)[O-])NC(=O)[C@H](N)Cc1c[nH]c2ccccc12)C(=O)N[C@@H](Cc1cccc(F)c1)C(N)=O` (stereo partly drawn) [HT-112, D-Trp-Met(O)-Asp(Ome)-Phe(3-F)-NH2], the “Agonistic Activity (%) at 10 μM” value was 2.89%.

For the compound `COC(=O)C[C@H](NC(=O)[C@H](CC[S+](C)[O-])NC(=O)[C@H](N)Cc1c[nH]c2ccccc12)C(=O)N[C@@H](Cc1cccc(I)c1)C(N)=O` (stereo partly drawn) [HT-113, D-Trp-Met(O)-Asp(Ome)-Phe(3-I)-NH2], the “Agonistic Activity (%) at 10 μM” value turned out to be 6.21%.

Regarding `COC(=O)C[C@H](NC(=O)[C@H](CC[S+](C)[O-])NC(=O)[C@H](N)Cc1c[nH]c2ccccc12)C(=O)N[C@@H](Cc1cccc(Br)c1)C(N)=O` (stereo partly drawn) [HT-114, D-Trp-Met(O)-Asp(Ome)-Phe(3-Br)-NH2], the “Agonistic Activity (%) at 10 μM” value was −8.48%.

In the case of `COC(=O)C[C@H](NC(=O)[C@H](CC[S+](C)[O-])NC(=O)[C@H](N)Cc1c[nH]c2ccccc12)C(=O)N[C@@H](Cc1ccc(C)cc1)C(N)=O` (stereo partly drawn) [HT-115, D-Trp-Met(O)-Asp(Ome)-Phe(4-Me)-NH2], the “Agonistic Activity (%) at 10 μM” value came to 9.82%.

For the compound `COC(=O)C[C@H](NC(=O)[C@H](CC[S+](C)[O-])NC(=O)[C@H](N)Cc1c[nH]c2ccccc12)C(=O)N[C@@H](Cc1ccc(N=[N+]=[N-])cc1)C(N)=O` (stereo partly drawn) [HT-116, D-Trp-Met(O)-Asp(Ome)-Phe(4-N3)-NH2], the “Agonistic Activity (%) at 10 μM” value came to 10.90%.

Turning to `COC(=O)C[C@H](NC(=O)[C@H](CC[S+](C)[O-])NC(=O)[C@H](N)Cc1c[nH]c2ccccc12)C(=O)N[C@@H](Cc1ccc(C#N)cc1)C(N)=O` (stereo partly drawn) [HT-117, D-Trp-Met(O)-Asp(Ome)-Phe(4-CN)-NH2], the “Agonistic Activity (%) at 10 μM” value is reported as 9.81%.

Take `COC(=O)C[C@H](NC(=O)[C@H](CC[S+](C)[O-])NC(=O)[C@H](N)Cc1c[nH]c2ccccc12)C(=O)N[C@@H](Cc1ccc([N+](=O)[O-])cc1)C(N)=O` (stereo partly drawn) [HT-118, D-Trp-Met(O)-Asp(Ome)-Phe(4-NO2)-NH2]: the “Agonistic Activity (%) at 10 μM” value is reported as 0.13%.

Consider `COC(=O)C[C@H](NC(=O)[C@H](CC[S+](C)[O-])NC(=O)[C@H](N)Cc1c[nH]c2ccccc12)C(=O)N[C@@H](Cc1ccc(Br)cc1)C(N)=O` (stereo partly drawn) [HT-119, D-Trp-Met(O)-Asp(Ome)-Phe(4-Br)-NH2], for which the “Agonistic Activity (%) at 10 μM” value is reported as 6.93%.

Take `COC(=O)C[C@H](NC(=O)[C@H](CC[S+](C)[O-])NC(=O)[C@H](N)Cc1c[nH]c2ccccc12)C(=O)N[C@@H](Cc1ccc(Cl)cc1)C(N)=O` (stereo partly drawn) [HT-120, D-Trp-Met(O)-Asp(Ome)-Phe(4-Cl)-NH2]: the “Agonistic Activity (%) at 10 μM” value is given as −1.00%.

In the case of `COC(=O)C[C@H](NC(=O)[C@H](CC[S+](C)[O-])NC(=O)[C@H](N)Cc1c[nH]c2ccccc12)C(=O)N[C@@H](Cc1ccc(F)cc1)C(N)=O` (stereo partly drawn) [HT-121, D-Trp-Met(O)-Asp(Ome)-Phe(4-F)-NH2], the “Agonistic Activity (%) at 10 μM” value amounted to 10.99%.
